Converted amounts (≈) assume the structure as drawn.

The subject of assay [1] is Staphylococcus aureus. Kind of assay: Antibacterial activity against methicillin-resistant Staphylococcus aureus incubated for 18 hrs post 30 mins pre-diffusion by disk diffusion method. It is filed as functional. (A growth-free zone around the sample is the usual read-out of agar diffusion tests.)
The next assay has as its system Bacillus anthracis. Kind of assay: Antibacterial activity against Bacillus anthracis incubated for 18 hrs post 30 mins pre-diffusion by disk diffusion method. It is filed as functional.
The subject of another assay is Listeria monocytogenes. In words: Antibacterial activity against Listeria monocytogenes ATCC 35152 after 24 hrs by broth microdilution method. It is filed as functional. The settings on record: ATCC 35152, 24 h.
Assay [2] has as its system Staphylococcus aureus. Kind of assay: Antibacterial activity against Staphylococcus aureus ATCC 49444 after 24 hrs by broth microdilution method. The settings on record: ATCC 49444, 24 h. It is filed as functional.
The subject of assay [3] is Pseudomonas aeruginosa. In words: Antibacterial activity against Pseudomonas aeruginosa ATCC 27853 after 24 hrs by broth microdilution method. It is filed as functional. To be noted: ATCC 27853, 24 h.
The next assay deals with Salmonella typhimurium. In words: Antibacterial activity against Salmonella typhimurium ATCC 14028 after 24 hrs by broth microdilution method. The format is functional, Salmonella enterica subsp. enterica serovar Typhimurium. The settings on record: Salmonella enterica, ATCC 14028, 24 h. In general terms: Dilution methods test growth across graded concentrations, often in twofold steps.

For assay [4], the system named is Escherichia coli. In words: Antibacterial activity against Escherichia coli after 24 hrs by broth microdilution method. The format is functional.
In a further assay the test system is Bacillus cereus. Kind of assay: Antibacterial activity against Bacillus cereus ATCC 10876 after 24 hrs by microdilution method. It is filed as functional. The settings on record: ATCC 10876, 24 h.
For another assay, the system named is Enterococcus faecalis. Kind of assay: Antibacterial activity against Enterococcus faecalis ATCC 29212 after 24 hrs by microdilution method. It is filed as functional. The settings on record: ATCC 29212, 24 h.
For assay [5], the system named is Staphylococcus aureus. In words: Antibacterial activity against Staphylococcus aureus ATCC 25923 after 24 hrs by microdilution method. It is filed as functional. To be noted: ATCC 25923, 24 h.
For a further assay, the system named is Proteus mirabilis. In words: Antibacterial activity against Proteus mirabilis ATCC 35659 after 24 hrs by microdilution method. The format is functional. The settings on record: ATCC 35659, 24 h.
Assay [6] deals with Escherichia coli. Kind of assay: Antibacterial activity against Escherichia coli ATCC 25922 after 24 hrs by microdilution method. It is filed as functional. To be noted: ATCC 25922, 24 h.
Assay [7] concerns Pseudomonas aeruginosa. In words: Antibacterial activity against Pseudomonas aeruginosa ATCC 27853 after 24 hrs by microdilution method. To be noted: ATCC 27853, 24 h. It is filed as functional.
Assay [8] concerns Candida albicans. In words: Antifungal activity against Candida albicans ATCC 50193 after 24 hrs by microdilution method. It is filed as functional. The settings on record: ATCC 50193, 24 h.
Another assay concerns Aspergillus brasiliensis. In words: Antifungal activity against Aspergillus brasiliensis ATCC 16404 after 24 hrs by microdilution method. The format is functional. The settings on record: ATCC 16404, 24 h.
Assay [9] concerns Candida albicans. In words: Antifungal activity against Candida albicans. It is filed as functional.
Another assay deals with Aspergillus niger. Kind of assay: Antifungal activity against Aspergillus niger. It is filed as functional.
The test system of assay [10] is Staphylococcus aureus. In words: Antibacterial activity against Staphylococcus aureus. The format is functional.
Assay [11] concerns Pseudomonas aeruginosa. In words: Antibacterial activity against Pseudomonas aeruginosa. The format is functional.

What is called MIC is the least concentration at which growth counts as inhibited. A low value points to inhibition by little substance. As for POLYMYXIN B, the MIC in the assay with Staphylococcus aureus [1] and in the assay with Bacillus anthracis was 31 to 1000 µg/mL in each case.
As for `Cc1nc(-c2ccccc2)sc1-c1nnc(S)n1/N=C/c1cccc(Cl)c1Cl`, the MIC with Listeria monocytogenes, with Staphylococcus aureus [2], against Pseudomonas aeruginosa [3], against Salmonella typhimurium and against Escherichia coli [4] was 1.95 to 62.5 µg/mL (≈ 4.37 to 140 µM) in each case.
Turning to `Cc1nc(-c2ccccc2)sc1-c1nnc(S)n1/N=C/c1cccc(Cl)c1`, the MIC in the assay on Listeria monocytogenes, in the assay with Staphylococcus aureus [2], against Pseudomonas aeruginosa [3], with Salmonella typhimurium and against Escherichia coli [4] was 1.95 to 62.5 µg/mL (≈ 4.73 to 152 µM) throughout.
For the compound `CC[C@H]1OC(=O)[C@H](C)[C@@H](O[C@H]2C[C@@](C)(OC)[C@@H](O)[C@H](C)O2)[C@H](C)[C@@H](O[C@@H]2O[C@H](C)C[C@H](N(C)C)[C@H]2O)[C@](C)(O)C[C@@H](C)C(=O)[C@H](C)[C@@H](O)[C@]1(C)O` [ERYTHROMYCIN], the MIC against Staphylococcus aureus [1] and with Bacillus anthracis was 31 to 1000 µg/mL (≈ 42.2 to 1360 µM) throughout.
On to `CO[C@H]1/C=C/O[C@@]2(C)Oc3c(C)c(O)c4c(O)c(c(/C=N/N5CCN(C)CC5)c(O)c4c3C2=O)NC(=O)/C(C)=C\C=C\[C@H](C)[C@H](O)[C@@H](C)[C@@H](O)[C@@H](C)[C@H](OC(C)=O)[C@@H]1C` [RIFAMPIN], for which the MIC in the assay with Staphylococcus aureus [1] and against Bacillus anthracis was 31 to 1000 µg/mL (≈ 37.7 to 1220 µM) throughout.
Turning to `CCCCCCCCCCCCCCn1nnc(-c2n[nH]c(=S)n2-c2ccccc2)c1-c1n[nH]c(=S)n1-c1ccccc1`, the MIC in the assay on Bacillus cereus, in the assay with Enterococcus faecalis, against Staphylococcus aureus [5], with Proteus mirabilis, against Escherichia coli [6] and against Pseudomonas aeruginosa [7] was 1 to 128 µg/mL (≈ 1.62 to 208 µM) each time. Further, the MIC in the assay with Candida albicans [8] and against Aspergillus brasiliensis was 1 to 128 µg/mL (≈ 1.62 to 208 µM) each time.
Regarding `CCCCCCCCCCCCn1nnc(-c2n[nH]c(=S)n2N)c1-c1n[nH]c(=S)n1N`, the MIC against Bacillus cereus, in the assay on Enterococcus faecalis, against Staphylococcus aureus [5], with Proteus mirabilis, against Escherichia coli [6] and with Pseudomonas aeruginosa [7] was 1 to 128 µg/mL (≈ 2.15 to 275 µM) each time. Besides, the minimal inhibitory concentration (MIC) in the assay with Candida albicans [8] and against Aspergillus brasiliensis was 1 to 128 µg/mL (≈ 2.15 to 275 µM) throughout.
With `Cc1nc(-c2ccccc2)sc1-c1nnc(S)n1/N=C/c1ccccc1O`, the MIC with Listeria monocytogenes, against Staphylococcus aureus [2], against Pseudomonas aeruginosa [3], against Salmonella typhimurium and with Escherichia coli [4] was 1.95 to 62.5 µg/mL (≈ 4.96 to 159 µM) each time.
For `OC(Cn1cncn1)(Cn1cncn1)c1ccc(F)cc1F` [FLUCONAZOLE], the MIC against Candida albicans [9] came to 10.2 µg/mL (≈ 33.3 µM); in the assay on Aspergillus niger, 9.4 µg/mL (≈ 30.7 µM); with Bacillus cereus, 4 µg/mL (≈ 13.1 µM); in the assay on Enterococcus faecalis it was 4 µg/mL (≈ 13.1 µM); against Staphylococcus aureus [5], 4 µg/mL (≈ 13.1 µM); in the assay on Proteus mirabilis it was 4 µg/mL (≈ 13.1 µM). The MIC against Escherichia coli [6] was determined as 4 µg/mL (≈ 13.1 µM); in the assay with Pseudomonas aeruginosa [7], 4 µg/mL (≈ 13.1 µM); in the assay on Candida albicans [8], 1 µg/mL (≈ 3.27 µM); against Aspergillus brasiliensis it was 1 µg/mL (≈ 3.27 µM).
For the compound `Cc1nc(-c2ccccc2)sc1-c1nnc(S)n1/N=C/c1ccc(O)cc1`, the MIC with Listeria monocytogenes, with Staphylococcus aureus [2], in the assay with Pseudomonas aeruginosa [3], with Salmonella typhimurium and against Escherichia coli [4] was 1.95 to 62.5 µg/mL (≈ 4.96 to 159 µM) throughout.
Regarding `CCn1cc(C(=O)O)c(=O)c2cc(F)c(N3CCNCC3)cc21` [NORFLOXACIN], the MIC is 14.1 µg/mL (≈ 44.2 µM) against Staphylococcus aureus [10]; 7.8 µg/mL (≈ 24.4 µM) in the assay with Candida albicans [9]; 10.2 µg/mL (≈ 31.9 µM) in the assay on Aspergillus niger; 31 to 1000 µg/mL (≈ 97.1 to 3130 µM) against Staphylococcus aureus [1]; 31 to 1000 µg/mL (≈ 97.1 to 3130 µM) in the assay on Bacillus anthracis; 11.7 µg/mL (≈ 36.6 µM) with Pseudomonas aeruginosa [11].
Regarding `Cc1nc(-c2ccccc2)sc1-c1nnc(S)n1/N=C/c1c(Cl)cccc1Cl`, the MIC in the assay with Listeria monocytogenes, against Staphylococcus aureus [2], with Pseudomonas aeruginosa [3], in the assay with Salmonella typhimurium and against Escherichia coli [4] was 1.95 to 62.5 µg/mL (≈ 4.37 to 140 µM) in each case.
With `CCCCCCCCCCCCCCCCn1nnc(-c2n[nH]c(=S)n2N)c1-c1n[nH]c(=S)n1N`, the MIC with Bacillus cereus, against Enterococcus faecalis, against Staphylococcus aureus [5], against Proteus mirabilis, against Escherichia coli [6] and with Pseudomonas aeruginosa [7] was 1 to 128 µg/mL (≈ 1.92 to 245 µM) each time. Further, the MIC in the assay on Candida albicans [8] and in the assay with Aspergillus brasiliensis was 1 to 128 µg/mL (≈ 1.92 to 245 µM) throughout.
